Here are results for 13 molecules from ChEMBL document CHEMBL6109108, “A comprehensive review of fused imidazonaphthyridine derivatives: Synthetic approaches and biological applications” (Bioorg Med Chem, 2025).

For data set [1], the system named is Candida metapsilosis. In words: Antifungal activity against Candida metapsilosis assessed as zone of inhibition at 10 ug/ml by disc diffusion method. It is filed as functional. Conditions: Lodderomyces metapsilosis, read-out: IZ. (In agar diffusion tests the substance spreads into inoculated agar from a disc or well.)
Data set [2] concerns Aspergillus niger. In words: Antifungal activity against Aspergillus niger assessed as zone of inhibition at 25 ug/ml by disc diffusion method. In kind it is functional. The note with it: read-out: IZ.
The test system of data set [3] is Staphylococcus aureus. In words: Antibacterial activity against Staphylococcus aureus assessed as zone of inhibition at 25 ug/ml by agar disc diffusion method. In kind it is functional. The note with it: read-out: IZ.
For data set [4], the system named is Aspergillus niger. In words: Antifungal activity against Aspergillus niger assessed as zone of inhibition at 35 ug/ml by disc diffusion method. It is filed as functional. The note with it: read-out: IZ.
Data set [5] deals with Staphylococcus aureus. Briefly: Antibacterial activity against Staphylococcus aureus assessed as zone of inhibition at 35 ug/ml by agar disc diffusion method. In kind it is functional. The note with it: read-out: IZ.
The test system of data set [6] is Staphylococcus aureus. Briefly: Antibacterial activity against Staphylococcus aureus assessed as zone of inhibition at 10 ug/ml by agar disc diffusion method. It is filed as functional. Conditions: read-out: IZ.
Data set [7] concerns Candida metapsilosis. In words: Antifungal activity against Candida metapsilosis assessed as zone of inhibition at 25 ug/ml by disc diffusion method. It is filed as functional. Conditions: Lodderomyces metapsilosis, read-out: IZ.
The subject of data set [8] is Candida metapsilosis. In words: Antifungal activity against Candida metapsilosis assessed as zone of inhibition at 35 ug/ml by disc diffusion method. In kind it is functional. The note with it: Lodderomyces metapsilosis, read-out: IZ.
Data set [9] has as its system Escherichia coli. Briefly: Antibacterial activity against Escherichia coli assessed as zone of inhibition at 10 ug/ml by agar disc diffusion method. It is filed as functional. The note with it: read-out: IZ.
The subject of data set [10] is Aspergillus niger. In words: Antifungal activity against Aspergillus niger assessed as zone of inhibition at 10 ug/ml by disc diffusion method. In kind it is functional. The note with it: read-out: IZ.
Data set [11] has as its system Escherichia coli. In words: Antibacterial activity against Escherichia coli assessed as zone of inhibition at 25 ug/ml by agar disc diffusion method. It is filed as functional. Conditions: read-out: IZ.
Data set [12] relates to Escherichia coli. Briefly: Antibacterial activity against Escherichia coli assessed as zone of inhibition at 35 ug/ml by agar disc diffusion method. It is filed as functional. Conditions: read-out: IZ.
The test system of a further data set is Aphis craccivora. Briefly: Anti-insecticidal activity against Aphis craccivora. In kind it is functional.
The target in data set [13] is Voltage-gated inwardly rectifying potassium channel KCNH2 (Homo sapiens, UniProt Q12809). In words: Inhibition of hERG. In kind it is toxicity. On the technique in general: Block of hERG is tested as a sign of cardiac risk.
Sequence of Voltage-gated inwardly rectifying potassium channel KCNH2 (Q12809 whole entry): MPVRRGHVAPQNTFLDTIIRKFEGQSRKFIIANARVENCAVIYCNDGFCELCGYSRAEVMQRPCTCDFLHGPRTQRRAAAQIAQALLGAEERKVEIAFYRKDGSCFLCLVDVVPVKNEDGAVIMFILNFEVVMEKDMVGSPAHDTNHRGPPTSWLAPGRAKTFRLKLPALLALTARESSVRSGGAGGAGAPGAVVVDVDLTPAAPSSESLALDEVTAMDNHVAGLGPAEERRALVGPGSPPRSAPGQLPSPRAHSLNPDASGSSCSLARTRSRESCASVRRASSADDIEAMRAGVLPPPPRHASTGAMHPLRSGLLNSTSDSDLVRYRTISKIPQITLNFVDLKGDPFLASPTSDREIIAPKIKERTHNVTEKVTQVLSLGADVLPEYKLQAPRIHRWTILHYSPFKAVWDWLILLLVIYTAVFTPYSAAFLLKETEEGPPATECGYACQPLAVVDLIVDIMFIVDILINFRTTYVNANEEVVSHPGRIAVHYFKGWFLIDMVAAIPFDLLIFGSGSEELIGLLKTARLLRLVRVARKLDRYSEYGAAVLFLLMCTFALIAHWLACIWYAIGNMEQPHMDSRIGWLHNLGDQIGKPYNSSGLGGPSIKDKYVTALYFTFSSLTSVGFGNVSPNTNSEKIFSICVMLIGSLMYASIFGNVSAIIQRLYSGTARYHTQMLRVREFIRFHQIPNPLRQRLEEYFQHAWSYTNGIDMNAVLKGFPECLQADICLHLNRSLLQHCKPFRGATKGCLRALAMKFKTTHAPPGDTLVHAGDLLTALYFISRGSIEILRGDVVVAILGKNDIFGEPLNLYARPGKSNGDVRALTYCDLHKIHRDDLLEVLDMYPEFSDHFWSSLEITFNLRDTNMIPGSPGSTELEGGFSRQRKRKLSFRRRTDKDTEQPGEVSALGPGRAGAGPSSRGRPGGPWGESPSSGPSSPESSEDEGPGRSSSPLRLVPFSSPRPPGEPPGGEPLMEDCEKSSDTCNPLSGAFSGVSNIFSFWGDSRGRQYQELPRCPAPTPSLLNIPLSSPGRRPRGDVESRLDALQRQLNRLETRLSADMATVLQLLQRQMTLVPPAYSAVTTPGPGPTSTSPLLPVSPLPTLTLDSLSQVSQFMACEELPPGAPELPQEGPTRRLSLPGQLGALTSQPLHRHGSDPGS
Another data set relates to Hepatitis C virus. In words: Antiviral activity against Hepatitis C virus genotype 2a infected in human Huh-7 cells assessed as reduction in viral infection. In kind it is functional, organism-based, Hepacivirus hominis.
The subject of data set [14] is Pseudomonas aeruginosa. Briefly: Antibacterial activity against Pseudomonas aeruginosa assessed as zone of inhibition at 250 ug/ml by agar disc diffusion method. In kind it is functional. The note with it: read-out: IZ.
In data set [15] the test system is Bacillus subtilis. Briefly: Antibacterial activity against Bacillus subtilis assessed as zone of inhibition at 200 ug/ml by agar disc diffusion method. In kind it is functional. Conditions: read-out: IZ.
The subject of data set [16] is Bacillus subtilis. In words: Antibacterial activity against Bacillus subtilis assessed as zone of inhibition at 250 ug/ml by agar disc diffusion method. It is filed as functional. The note with it: read-out: IZ.
Data set [17] concerns Escherichia coli. In words: Antibacterial activity against Escherichia coli assessed as zone of inhibition at 150 ug/ml by agar disc diffusion method. Conditions: read-out: IZ. It is filed as functional.
Data set [18] relates to Escherichia coli. In words: Antibacterial activity against Escherichia coli assessed as zone of inhibition at 200 ug/ml by agar disc diffusion method. The note with it: read-out: IZ. It is filed as functional.
For data set [19], the system named is Escherichia coli. In words: Antibacterial activity against Escherichia coli assessed as zone of inhibition at 250 ug/ml by agar disc diffusion method. The note with it: read-out: IZ. It is filed as functional.
In data set [20] the test system is Pseudomonas aeruginosa. Briefly: Antibacterial activity against Pseudomonas aeruginosa assessed as zone of inhibition at 200 ug/ml by agar disc diffusion method. It is filed as functional. Conditions: read-out: IZ.
For data set [21], the system named is Bacillus subtilis. In words: Antibacterial activity against Bacillus subtilis assessed as zone of inhibition at 150 ug/ml by agar disc diffusion method. It is filed as functional. Conditions: read-out: IZ.
Data set [22] has as its system Staphylococcus aureus. In words: Antibacterial activity against Staphylococcus aureus assessed as zone of inhibition at 250 ug/ml by agar disc diffusion method. The note with it: read-out: IZ. In kind it is functional.
For data set [23], the system named is Pseudomonas aeruginosa. Briefly: Antibacterial activity against Pseudomonas aeruginosa assessed as zone of inhibition at 150 ug/ml by agar disc diffusion method. Conditions: read-out: IZ. In kind it is functional.
Data set [24] deals with Staphylococcus aureus. Briefly: Antibacterial activity against Staphylococcus aureus assessed as zone of inhibition at 200 ug/ml by agar disc diffusion method. It is filed as functional. The note with it: read-out: IZ.
Data set [25] concerns Staphylococcus aureus. Briefly: Antibacterial activity against Staphylococcus aureus assessed as zone of inhibition at 150 ug/ml by agar disc diffusion method. It is filed as functional. The note with it: read-out: IZ.
A further data set deals with hERG (KCNH2) (Homo sapiens, UniProt Q12809). In words: Inhibition of hERG potassium […] at 100 uM relative to control. It is filed as toxicity.
Sequence of hERG (KCNH2) (Q12809 whole entry, the tested form may be a part): as the sequence (Q12809 whole entry) above
Data set [26] deals with Bacillus subtilis. Briefly: Antibacterial activity against Bacillus subtilis assessed as diameter of zone of inhibition at 400 ug/ml by agar disk diffusion method. It is filed as functional. The note with it: read-out: IZ.
For data set [27], the system named is Escherichia coli. Briefly: Antibacterial activity against Escherichia coli assessed as zone of inhibition at 400 ug/ml by agar disk diffusion method. The note with it: read-out: IZ. It is filed as functional.
Data set [28] concerns Bacillus subtilis. In words: Antibacterial activity against Bacillus subtilis assessed as diameter of zone of inhibition at 600 ug/ml by agar disk diffusion method. In kind it is functional. Conditions: read-out: IZ.
For data set [29], the system named is Escherichia coli. In words: Antibacterial activity against Escherichia coli assessed as zone of inhibition at 600 ug/ml by agar disk diffusion method. It is filed as functional. The note with it: read-out: IZ.
Data set [30] concerns Escherichia coli. Briefly: Antibacterial activity against Escherichia coli assessed as zone of inhibition at 35 ug/ml by agar well diffusion method. In kind it is functional. Conditions: read-out: IZ.
Data set [31] relates to Escherichia coli. Briefly: Antibacterial activity against Escherichia coli assessed as zone of inhibition at 25 ug/ml by agar well diffusion method. Conditions: read-out: IZ. In kind it is functional.
Data set [32] relates to Staphylococcus aureus. Briefly: Antibacterial activity against Staphylococcus aureus assessed as zone of inhibition at 35 ug/ml by agar well diffusion method. It is filed as functional. The note with it: read-out: IZ.
Data set [33] relates to Escherichia coli. In words: Antibacterial activity against Escherichia coli assessed as zone of inhibition at 10 ug/ml by agar well diffusion method. In kind it is functional. The note with it: read-out: IZ.
Data set [34] has as its system Staphylococcus aureus. In words: Antibacterial activity against Staphylococcus aureus assessed as zone of inhibition at 25 ug/ml by agar well diffusion method. It is filed as functional. The note with it: read-out: IZ.
Data set [35] has as its system Staphylococcus aureus. Briefly: Antibacterial activity against Staphylococcus aureus assessed as zone of inhibition at 10 ug/ml by agar well diffusion method. The note with it: read-out: IZ. In kind it is functional.

Each structure is given as a SMILES string.

As to `O=c1oc2ccccc2cc1-c1cnc2c(-c3cccc([N+](=O)[O-])c3)cc3cccnc3n12`, the zone of inhibition at 10 µg/mL in the data set on Candida metapsilosis [1] was found to be 7 mm; in the data set with Staphylococcus aureus [6], 8 mm; with Escherichia coli [9] it was 8 mm; in the data set on Aspergillus niger [10] it was 7 mm. For the same molecule, the zone of inhibition at 25 µg/mL stood at 20 mm with Aspergillus niger [2], 19 mm in the data set on Staphylococcus aureus [3], 17 mm with Candida metapsilosis [7] and 2 mm with Escherichia coli [11]. Further, the zone of inhibition at 35 µg/mL with Aspergillus niger [4] worked out at 28 mm; in the data set on Staphylococcus aureus [5], 31 mm; in the data set on Candida metapsilosis [8] it was 28 mm; in the data set with Escherichia coli [12], 32 mm.

`N#Cc1c(N)nc2c(c1N)C(c1ccc(C(F)(F)F)cc1)C([N+](=O)[O-])=C1N(Cc3ccc(Cl)nc3)CCN12` (stereo not given): the LC50 – broadly, the concentration lethal to half of the exposed cells or organisms – in the data set with Aphis craccivora worked out at 31 nM.

Turning to `Cc1cc(C)c2ccc3nc(-c4ccc(F)cc4)c(CN4CCOCC4)n3c2n1`, the IC50 (commonly the concentration needed to halve the response being measured) in data set [13] is greater than 50000 nM.

Molecule `Cc1cc(C)c2ccc3nc(-c4ccccc4)c(CN4CCCCC4)n3c2n1` showed an IC50 in [13] of 1190 nM.

Molecule `N#Cc1c(N)nc2c(c1N)C(c1ccc(F)cc1)C([N+](=O)[O-])=C1N(Cc3ccc(Cl)nc3)CCN12` (stereo not given) yielded an LC50 in the data set with Aphis craccivora of 11 nM.

With `O=c1oc2ccccc2cc1-c1cnc2c(-c3cccc(O)c3)cc3cccnc3n12`, the zone of inhibition at 10 µg/mL with Candida metapsilosis [1] was determined as 7 mm; in the data set on Staphylococcus aureus [6], 8 mm; in the data set on Escherichia coli [9], 8 mm; with Aspergillus niger [10] it was 7 mm. Moreover, the zone of inhibition at 25 µg/mL came out at 20 mm with Aspergillus niger [2], 19 mm in the data set with Staphylococcus aureus [3], 17 mm in the data set with Candida metapsilosis [7] and 2 mm in the data set with Escherichia coli [11]. Moreover, the zone of inhibition at 35 µg/mL in the data set with Aspergillus niger [4] was determined as 28 mm; with Staphylococcus aureus [5], 31 mm; with Candida metapsilosis [8] it was 28 mm; with Escherichia coli [12] it was 32 mm.

In turn, `Cc1cc(C)c2ccc3nc(-c4ccccc4)c(CN4CCCC4)n3c2n1` had an IC50 in data set [13] of 92200 nM.

In the case of `O=[N+]([O-])c1cccc(-c2cc3cccnc3n3c(-c4ccc(Cl)cc4)cnc23)c1`, the zone of inhibition at 10 µg/mL with Candida metapsilosis [1] came out at 7 mm; in the data set with Staphylococcus aureus [6], 8 mm; in the data set with Escherichia coli [9], 8 mm; with Aspergillus niger [10], 7 mm. Further, the zone of inhibition at 25 µg/mL in the data set with Aspergillus niger [2] came out at 20 mm; in the data set with Staphylococcus aureus [3] it was 19 mm; with Candida metapsilosis [7], 17 mm; with Escherichia coli [11] it was 20 mm. In addition, the zone of inhibition at 35 µg/mL in the data set with Aspergillus niger [4] was 28 mm; in the data set on Staphylococcus aureus [5], 29 mm; in the data set with Candida metapsilosis [8], 28 mm; in the data set on Escherichia coli [12], 30 mm.

Take `COc1ccc(-c2cc3c(C(F)(F)F)cc(C(F)(F)F)nc3n3c(-c4ccc(OC)cc4)cnc23)cc1`: the EC50 – broadly, the concentration giving half of the maximal effect – in the data set with Hepatitis C virus is 4100 nM.

For the molecule `Oc1ccc2nc3c(-c4ccccc4C(F)(F)F)cc4cccnc4n3c2c1`, the zone of inhibition at 250 µg/mL in the data set with Pseudomonas aeruginosa [14] came out at 22 mm; with Bacillus subtilis [16] it was 23 mm; in the data set on Escherichia coli [19] it was 22 mm; in the data set with Staphylococcus aureus [22], 22 mm. Further, the zone of inhibition at 200 µg/mL was 19 mm in the data set on Bacillus subtilis [15], 22 mm in the data set on Escherichia coli [18], 20 mm in the data set on Pseudomonas aeruginosa [20] and 20 mm in the data set on Staphylococcus aureus [24]. Besides, the zone of inhibition at 150 µg/mL with Escherichia coli [17] was found to be 17 mm; with Bacillus subtilis [21], 16 mm; in the data set on Pseudomonas aeruginosa [23], 17 mm; in the data set with Staphylococcus aureus [25] it was 18 mm.

Turning to `Cc1cc(C)c2ccc3nc(-c4ccccc4)c(CN4CCOCC4)n3c2n1`, at hERG (KCNH2), the inhibition (usually the relative decrease from the control value, in per cent) at 100 µM came to 10.1%.

In the case of `COc1ccc(-c2cc3cccnc3n3c2nc2ccccc23)cc1`, the zone of inhibition at 400 µg/mL is 7.5 mm in the data set on Bacillus subtilis [26] and 11.5 mm in the data set on Escherichia coli [27]. In addition, the figures for the zone of inhibition at 600 µg/mL in the data set on Bacillus subtilis [28] and with Escherichia coli [29] were 8.5 mm and 12.5 mm, respectively.

Consider `Fc1ccc(-c2cc3cccnc3n3c(-c4ccc(Br)cc4)cnc23)c(Cl)c1`, for which the zone of inhibition at 35 µg/mL in the data set on Escherichia coli [30] was 25 mm; in the data set on Staphylococcus aureus [32] it was 24 mm. In addition, the zone of inhibition at 25 µg/mL in the data set with Escherichia coli [31] and in the data set with Staphylococcus aureus [34] was 16 mm in each case. The zone of inhibition at 10 µg/mL in the data set with Escherichia coli [33] and in the data set on Staphylococcus aureus [35] was 6 mm in each case.
